Test results taken from ChEMBL document CHEMBL1132532, “Correlation of anti-HIV activity with structure: use of electrostatic potential and conformational analysis” (Bioorg Med Chem Lett, 1999).

Columns and labels:
Type in all cases: functional, cell-based
Details in all cases: Homo sapiens
[1] = tested on: MT4; experiment: The compound was tested for anti HIV-activity (active) against MT-4 cell line
[2] = tested on: ATH-8 cell line; experiment: The compound was tested for anti HIV-activity (active) against ATH8 cell line
[3] = tested on: PBMC; experiment: The compound was tested for anti HIV-activity (active) against PBM cell line
[4] = tested on: MT2; experiment: The compound was tested for anti HIV-activity (active) against MT-2 cell line

Row | SMILES | IC50 [1] [µM] | IC50 [2] [µM] | also measured
1 | Nc1ncnc2c1ncn2[C@H]1C[C@@H](CO)CO1 | > 200 | – | –
2 | Cc1cn([C@H]2C[C@H](N=[N+]=[N-])[C@@H](CO)O2)c(=O)[nH]c1=O [ZIDOVUDINE] | – | 0.4 | IC50 [3]: 0.004 µM
3 | Nc1ncnc2c1ncn2[C@H]1CO[C@@H](CO)C1 | 43 | 15 | –
4 | Nc1ncnc2c1ncn2[C@@H]1C[C@H](CO)CO1 | > 200 | – | –
5 | Nc1nc(O)c2ncn(C3C=CC(CO)O3)c2n1 (stereo not drawn) | – | 0.19 | IC50 [4]: 0.19 µM
6 | Nc1nc(O)c2ncn(C3COC(CO)C3)c2n1 (stereo not drawn) | > 200 | – | –
7 | Nc1ncnc2c1ncn2[C@@H]1CO[C@H](CO)C1 | – | – | IC50 [3]: 0.67 µM
8 | Cc1cn(C2COC(CO)C2)c(=O)[nH]c1=O (stereo not drawn) | > 200 | – | –
9 | Nc1ccn(C2COC(CO)C2)c(=O)n1 (stereo not drawn) | > 200 | – | –
10 | Nc1ncnc2c1ncn2[C@@H]1O[C@H](CO)[C@H]1CO | 4 | – | –
